Values belong to the molecule of their own block, whether it stands above or below them. Where a SMILES comes first, the peptide text is derived from it. The star is where a group is joined. Cbz = O=C(OCc1ccccc1)*; CH2F = FC*
Tests used:
[1] = test system: Hela cells; assay: Immunofluorescence confocal microscopy of Omi in Hela cells; type: cell-based, human; details: staurosporine 1 μM, 5 hours; untreated cells mostly punctate and perinuclear
[2] = test system: Jurkat and HL-60 cells; assay: Release of Omi, Smac and cytochrome c to the cytosol and procaspase-3 processing (immunoblot of cytosolic extracts); type: cell-based, human; details: staurosporine 2 μM
Procedure: FIG. 13 is a scanned image of a blot representing cytosolic extracts from human Jurkat and HL-60 cells bound to GST-BIR3 and immunoblotted with Omi (top panels), Smac (second panels), Cytochrome c (third panels), or caspase-3 (lower panels) antibodies.
FIG. 14 is a scanned image of a blot representing cytosolic extracts of Jurkat cells treated with TRAIL (1 μg/ml) for the indicated time periods and analyzed by immunoblotting with Omi (top panel), Smac (middle panel), or cytochrome c (bottom panel) antibodies.
To determine whether Omi is released together with Smac and cytochrome c from the mitochondria to the cytoplasm during apoptosis, we treated Jurkat and HL-60 cells with staurosporine (2 μM), which is known to induce the mitochondrial apoptotic pathway, and analyzed their cytosolic extracts by immunoblot analysis. […] Processing of procaspase-3 also followed a similar time course with maximum processing observed at 6-8 hours after treatment. Very little or no Omi or Smac proteins or processing of procaspase-3 were detected in the extracts at zero-time points.

[3] = molecular target: T1, XIAP-BIR3 (Homo sapiens, UniProt P98170); assay: GST-BIR3 precipitation of extracts of transfected 293T cells; type: binding; details: 24 hours after transfection
T1 construct: Omi associates directly with the BIR3 domain of XIAP
Procedure: FIG. 24 is a scanned image of an immunoblot with Flag-HRP antibody of 293T cells extracts precipitated with GST-BIR3 24 hours after transfection with the indicated expression constructs extracts.
(§1) Next, the contribution of the IAP binding activity of Omi to its proapoptotic activity was tested. The MTS of Omi was replaced with a GFP-IETD sequence and mutated at its active site Ser306 to Ala (FIG. 20, GFP-IETD-AVP). Of note, the presence of the IETD sequence between GFP and Omi-S/A allowed caspase-dependent cleavage at the IETD site after the Asp residue and release of mature Omi-S/A in the cytosol of the transfected 293 and MCF-7 cells (FIG. 23). […] Taken together, Omi not only can induce apoptosis through its serine protease activity but also via its ability to bind and neutralize IAPs.

[4] = test system: MCF-7 cells; assay: Apoptosis of MCF-7 cells transfected with cytosolic Omi-GFP fusion proteins; type: cell-based; details: zVAD-FMK 20 μM; MCF-7 cells transfected with M-Omi-GFP
Procedure: FIG. 20 provides schematic diagrams of the Omi-GFP and GFP-IETD-Omi constructs used to assay the ability of Omi to induce apoptosis or to enhance apoptosis by other stimuli.
FIG. 21 is a bar graphic representation of the percentages of GFP-positive apoptotic MCF-7 cells 36 hours following transfection with M-Omi-S/A-GFP or pEGFP-N1 alone or M-Omi-GFP together with empty vector or expression construct encoding XIAP, XIAP-BIR3, or caspase-9DN. The cells were also transfected with M-Omi-GFP expression construct in the presence of zVAD-FMK (20 μM).

[5] = test system: 293 and MCF-7 cells; assay: Caspase-dependent processing of GFP-IETD-Omi at the IETD site in transfected cells (immunoblot); type: cell-based; details: cytosolic extracts, zVAD-FMK 20 μM
Procedure: FIG. 23 is a scanned image of an immunoblot with Flag-HRP antibody of MCF-7 and 293T cells 24 hours following transfected with pEGFP or M-Omi-Flag, GFP-IETD-AVP (AVP) or GFP-IETD-SSA (SSA) expression constructs in the presence or absence of zVAD-FMK (20μM). M-Omi-Flag is similar to the M-Omi-GFP shown in FIG. 20, except that the GFP tag was replaced with a Flag tag.
as §1

T1 sequence (P98170 238-358 limits assumed): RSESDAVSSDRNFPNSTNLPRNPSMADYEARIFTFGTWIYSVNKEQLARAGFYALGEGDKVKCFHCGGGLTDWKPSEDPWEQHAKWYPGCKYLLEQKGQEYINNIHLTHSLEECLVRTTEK

Molecule: CN[C@@H]1C[C@H]2O[C@@](C)([C@@H]1OC)n1c3ccccc3c3c4c(c5c6ccccc6n2c5c31)C(=O)NC4 [staurosporine]
- immunofluorescence staining pattern of Omi [1]: showed diffused immunofluorescence staining of Omi
- accumulation of cytochrome c, Smac and Omi in the cytosol [2]: accumulated in the cytosol of these cells in a time dependent manner
- time of maximum processing of procaspase-3 after treatment [2]: 6 to 8 h

- binding to XIAP-BIR3 (GST-BIR3) [3]: able to bind the GST-BIR3 fusion protein
Molecule: mature Omi-S/A: mature Omi-S/A released in the cytosol by caspase-dependent cleavage of GFP-IETD-AVP at the IETD site

Molecule: COC(=O)C[C@H](NC(=O)[C@H](C)NC(=O)[C@@H](NC(=O)OCc1ccccc1)C(C)C)C(=O)CF [zVAD-FMK, reference compound] (Cbz-Val-Ala-Asp(OMe)-CH2F)
- block of M-Omi-GFP-induced apoptosis [4]: did not block the ability of M-Omi-GFP to induce apoptosis
- processing at the IETD site [5]: very little or no processing at the IETD site was observed
